Test results reported in patent US20120010272A1, “RNA Interference Mediated Inhibition of Apoptosis Signal-Regulating Kinase 1 (ASK1) Gene Expression Using Short Interfering Nucleic Acid (siNA)” (Merck Sharp & Dohme Corp., priority 2009, published 2012).
[invAb] = inverted abasic unit; m = 2'-O-methyl; r = 2'-OH (RNA); f = 2'-fluoro

Columns and labels:
Assay type in all cases: cell-based
[1] = tested on: ASK1 mRNA; assay: ASK1 mRNA knock-down by siNA in human A549 cells (RNAiMax transfection, Taqman RT-PCR); details: for % KD Human: 10 nM siNA, 24 hrs post-transfection, vs non-targeting control, GAPDH-normalized, mean ± S.D.; for % KD Human / % KD ASK-1 10 nM: two experiments; for % KD ASK-1 mRNA at 10 nM: mean ± S.D. (Table 5); for % KD ASK-1 10 nM: mean ± standard deviation (Table 6)
Method: A549 (human; ATCC cat #CCL-185): Cells were cultured at 37° C. in the presence of 5% CO2 and grown in Ham's F12K medium with 2 mM L-glutamine adjusted to contain 1.5 g/L sodium bicarbonate and supplemented with fetal bovine serum at a final concentration of 10%, 100 μg/mL of streptomycin, and 100 U/mL penicillin.
(§1) Cells were plated in all wells of a tissue-culture treated, 96-well plate at a final count of 5000 cells/well (A549 cell line) and 3,500 cells/well (Hepal-6 cell line) in 100 μL of the appropriate culture media. The cells were cultured for 24 hours after plating at 37° C. in the presence of 5% CO2.
(§2) After 24 hours, complexes containing siNA and RNAiMax were created as follows: A solution of RNAiMax diluted 33-fold in OPTI-MEM was prepared. In parallel, solutions of the siNAs for testing were prepared to a final concentration of 120 nM in OPTI-MEM. After incubation of RNAiMax/OPTI-MEM solution at room temperature for 5 min, an equal volume of the siRNA solution and the RNAiMax solution were added together for each of the siNAs.
(§3) This solution was incubated at room temperature for 20 minutes. After incubation, 20 uL of the solution was added to each of the relevant wells. The final concentration of siNA in each well was 10 nM and the final volume of RNAiMax in each well was 0.3 ul.
(§4) The time of incubation with the RNAiMax-siNA complexes was 24 hours and there was no change in media between transfection and harvesting, unless otherwise indicated.
(§5) RNA was extracted from a 96-well plate using the TaqMan® Gene Expression Cells-to-CT™ Kit (Cat #4399002) with a modified protocol. Briefly, a 60 uL (1 plate) or 110 uL (2 plates) of the Lysis Solution with DNase I was dispensed into each well of the Lysis Buffer Plate (twin.tec full skirt plate). The lysis buffer and stop plates were stored at 4° C. until the cells were washed.
(§6) The plate was spun at 1100 rpm for 5 minutes. The culture medium was aspirated and discarded from the wells of the culture plate. The lysis was performed automatically using a BioMek FX instrument and method. After the Biomek method was completed, the lysis plate was incubated for 2 min. at room temperature. The lysis plate can be stored for 2 hours at 4° C., or at −20° C. or −80° C. for two months.
(§7) Each well of the reverse transcription plate required 10 uL of 2× reverse transcriptase Buffer, 1 uL of 20× reverse transcription enzyme and 2 uL of nuclease-free water. The reverse transcription master mix was prepared by mixing 2× reverse transcription buffer, 20× reverse transcription enzyme mix, and nuclease-free water. 13 uL of the reverse transcription master mix was dispensed into each well of the reverse transcription plate (semi-skirted). A separate reverse transcription plate was prepared for each cell plate. The plate was loaded onto a Biomek NX or Biomek FX Dual-96 and the Biomek method was run. The program is programmed to automatically added 7 uL of lysate from the cell lysis procedure described above into each well of the reverse transcription plate. The plate is sealed and spun on a centrifuge (1000 rpm for 30 seconds) to settle the contents to the bottom of the reverse transcription plate. The plate is placed in a thermocycler at 37° C. for 60 min, 95° C. for 5 min, and 4° C. until the plate is removed from the thermocycler. Upon removal, if not used immediately, the plate was frozen at −20° C.
(§8) A series of probes and primers were used to detect the various mRNA transcripts of the genes of ASK1, ASK2, and GAPDH in human cell lines and ASK1 and GAPDH in mouse cell lines. All Taqman probes and primers for the experiments were supplied as pre-validated sets by ABI (see Table 2).
(§9) The assays were performed on an ABI 7900 instrument, according to the manufacturer's instructions. A TaqMan Gene Expression Master Mix (provided in the Cells-to-CT™, Applied Biosystems, Cat #4399002) was used. […]

[2] = tested on: ASK1 mRNA; assay: ASK1 mRNA knock-down by siNA in mouse Hepa1-6 cells (RNAiMax transfection, Taqman RT-PCR); details: 10 nM siNA, 24 hrs post-transfection, vs non-targeting control, GAPDH-normalized, mean ± S.D., two experiments
Method: Hepal-6 (murine; ATCC cat #CRL-1830): Cells were cultured at 37° C. in the presence of 5% CO2 and grown in Dulbecco's modified Eagle's medium (DMEM) with 4 mM L-glutamine adjusted to contain 1.5 g/L sodium bicarbonate and 4.5 g/L glucose and supplemented with 10% of fetal bovine serum, 100 μg/mL of streptomycin, and 100 U/mL penicillin.
as §1, §2, §3, §4, §5, §6, §7, §8, §9

[3] = tested on: mRNA transcript of human ASK2; assay: ASK2 specificity screen: effect of ASK1 siNAs on human ASK2 mRNA in A549 cells; details: 1 nM siNA, three independent experiments, mean ± standard deviation
Method: A549 cells were plated in all wells of a tissue-culture treated, 96-well plate at a final count of 5,000 cells/well in 100 μL of appropriate culture media. Cells were cultured for 24 hours after plating at 37° C. in the presence of 5% CO2.
as §2, with “follows.” for “follows:”, “siRNAs” for “siNAs”, “12” for “120”, “siNA” for “siRNA”, “siNAs. […] This solution was incubated at room temperature for 20 minutes. After incubation, 20 uL of the solution was added to each of the relevant wells. The final concentration of siNA in each well was 1 nM and the final volume of RNAiMax in each well was 0.3 uL. The time of incubation with the RNAiMax-siNA complexes was 24 hours.” for “siNAs.”
as §5, §6, §7, §8
The assays were performed on an ABI 7900 instrument, according to the manufacturer's instructions. A TaqMan Gene Expression Master Mix (provided in the Cells-to-CT™, Applied Biosystems, Cat #4399002) was used. The PCR reactions were carried out at 50° C. for 2 min, 95° C. for 10 min followed by 40 cycles at 95° C. for 15 secs and 60° C. for 1 min.
The expression level of the gene of interest and % knock-down was calculated using Comparative Ct method:
ΔΔCt=ΔCt(Target siRNA)−ΔCt(NTC)
Relative expression level=2^−ΔΔCt
The non-targeting control siRNA was, unless otherwise indicated, chosen as the value against which to calculate the % knock-down, because it is the most relevant control.
The specificity of these siNAs was also assessed. […]

[4] = tested on: ASK1 mRNA; assay: ASK1 mRNA knock-down by siNA in human A549 cells (RNAiMax transfection, Taqman RT-PCR); details: 12 concentrations 0.083 fM to 30 nM, mean ± S.D.

Substance	% KD Human [1] [%]	% KD ASK-1 mRNA at 10 nM [1] [%]	% KD ASK-1 10 nM [1] [%]	% KD Mouse [2] [%]	% KD ASK-2 1 nM [3] [%]	IC50 [4] [pM]
25376-DC: siNA duplex, sense B GcAccAGAAAuAAuAGAuA TTB, antisense UAUcuAuuAuuucuGGuGcUU (SEQ ID NO: 33/34), human ASK1 target site 2900 (sense GCACCAGAAAUAAUAGAUATT; antisense UAUCUAUUAUUUCUGGUGCUU; chemistry not fully specified)	89 ± 1	89 ± 1	89 ± 1	14 ± 18	5 ± 12	14 ± 4
25379-DC: siNA duplex, sense B cGAuGGAAAuucuAAAAAu TTB, antisense AUUuuuAGAAuuuccAucGUU (SEQ ID NO: 39/40), human ASK1 target site 4507 (sense CGAUGGAAAUUCUAAAAAUTT; antisense AUUUUUAGAAUUUCCAUCGUU; chemistry not fully specified)	92 ± 0	92 ± 0	92 ± 0	4 ± 3	−6 ± 4	9 ± 2
25385-DC: siNA duplex, sense B GGAAGGcuAucAuuGAcuu TTB, antisense AAGucAAuGAuAGccuuccUU (SEQ ID NO: 51/52), human ASK1 target site 4449 (sense GGAAGGCUAUCAUUGACUUTT; antisense AAGUCAAUGAUAGCCUUCCUU; chemistry not fully specified)	90 ± 0	90 ± 0	90 ± 0	75 ± 15	2 ± 11	10 ± 3
25387-DC: siNA duplex, sense B cAccAGAAAuAAuAGAuAA TTB, antisense UUAucuAuuAuuucuGGuGUU (SEQ ID NO: 55/56), human ASK1 target site 2901 (sense CACCAGAAAUAAUAGAUAATT; antisense UUAUCUAUUAUUUCUGGUGUU; chemistry not fully specified)	87 ± 2	87 ± 2	87 ± 2	−17 ± 11	4 ± 11	20 ± 3
25389-DC: siNA duplex, sense B GAGAcAAuuuuAAuAuAuA TTB, antisense UAUAuAuuAAAAuuGucucUU (SEQ ID NO: 59/60), human ASK1 target site 1907 (sense GAGACAAUUUUAAUAUAUATT; antisense UAUAUAUUAAAAUUGUCUCUU; chemistry not fully specified)	93 ± 4	93 ± 4	93 ± 4	−4 ± 4	5 ± 4	3 ± 0.5
25396-DC: siNA duplex, sense B cAAGcAAAAAGAAAAAGAc TTB, antisense GUCuuuuucuuuuuGcuuGUU (SEQ ID NO: 73/74), human ASK1 target site 3183 (sense CAAGCAAAAAGAAAAAGACTT; antisense GUCUUUUUCUUUUUGCUUGUU; chemistry not fully specified)	90 ± 1	–	–	75 ± 1	–	–
25397-DC: siNA duplex, sense B AGccAGuAcuuccGGGAAu TTB, antisense AUUcccGGAAGuAcuGGcuUU (SEQ ID NO: 75/76), human ASK1 target site 1166 (sense AGCCAGUACUUCCGGGAAUTT; antisense AUUCCCGGAAGUACUGGCUUU; chemistry not fully specified)	60 ± 0	–	–	78 ± 7	–	–
25398-DC: siNA duplex, sense B GuGAcAGcAGcuucAuGAA TTB, antisense UUCAuGAAGcuGcuGucAcUU (SEQ ID NO: 77/78), human ASK1 target site 1038 (sense GUGACAGCAGCUUCAUGAATT; antisense UUCAUGAAGCUGCUGUCACUU; sense: DNA at AGT, 2'-fluoro at CU, [invAb] at 5' end, 3' end, backbone not given here; antisense: sugars from the 5' end rrrmfmmmmffmffmffmfmm, backbone not given here)	38 ± 6	–	–	51 ± 2	–	–
25400-DC: siNA duplex, sense B ccAcuGAccGAAAAAucAu TTB, antisense AUGAuuuuucGGucAGuGGUU (SEQ ID NO: 81/82), human ASK1 target site 3660 (sense CCACUGACCGAAAAAUCAUTT; antisense AUGAUUUUUCGGUCAGUGGUU; chemistry not fully specified)	86 ± 4	–	–	74 ± 1	–	–
25401-DC: siNA duplex, sense B uccuGGucGAGGccAcAAA TTB, antisense UUUGuGGccucGAccAGGAUU (SEQ ID NO: 83/84), human ASK1 target site 1995 (sense UCCUGGUCGAGGCCACAAATT; antisense UUUGUGGCCUCGACCAGGAUU; sense: DNA at AGT, 2'-fluoro at CU, [invAb] at 5' end, 3' end, backbone not given here; antisense: sugars from the 5' end rrrmfmmffffmmffmmmmmm, backbone not given here)	10 ± 16	–	–	21 ± 0	–	–
